Measured values taken from patent US20150336889A1, “INDOLE DERIVATIVES, PHARMACEUTICAL COMPOSITIONS CONTAINING SUCH INDOLES AND THEIR USE AS DNA METHYLATION MODULATORS” (IKERCHEM, S.L., priority 2012, published 2015).

Assays:
U-87MG = experiment: Cancer cell growth inhibition, U-87MG; assay type: cell-based; conditions: Homo sapiens, Brain, cell viability, 72 h
Experimental: (§1) Cell culture-based assays were used to evaluate the ability of compounds of the invention to inhibit cancer cell growth inhibition.
(§2) Cells were obtained from the American Type Culture Collection (ATCC) and European Collection of Cell Cultures (ECACC).
(§3) Cells were thawed in their appropriate media plus supplements (see table below). Cells were passaged at confluence by washing once in HBSS cation-free followed by a 3 minutes incubation with trypsin ([0.5 μg/ml]/EDTA [0.2 μg/ml]) (Gibco-BRL, 15400054) solution in HBSS at 37° C. (except non-adherent cell lines), and transferred to their appropriate media plus supplements. Prior to seeding at defined cell concentration, cells were recovered in medium, centrifuged and taken up in medium, and counted.
(§4) Cells were plated at 3000/5000/10000 cells/well in 100 μl media in tissue culture 96 well plates (Cultek). After 24 h, media was supplemented by 100 μl/well of diluted IPDNs at 100 μM.
(§5) The Hexosaminidase assay was used for the adherent cell lines, whereas the AlamarBlue® assay was used for the non-adherent cell lines.
(§6) Dose-response curves were generated by serial dilutions (1:1) of the compounds. […] Reagent blanks, containing media plus colorimetric reagent without cells were run on each plate. Blank values were subtracted from test values and were routinely 5-10% of uninhibited control values. Plates were incubated 72 h, and living cell number was determined by AlamarBlue® and Hexosaminidase test. The advantages of using those assays are that both can be done in the same microwell plate. AlamarBlue® assay: plates were incubated 72 h and living cell number was determined by AlamarBlue (Biosource DAL1100). After 4 h incubation at 37° C., relative fluorescent intensity, which correlates with the number of living cells, was read in a Cytofluor plate reader (Millipore) at 535/590 nm (Excitation/emission). The hexosaminidase activity was measured according to the following protocol: the media was removed and cells were washed once with PBS.
(§7) Data analysis was done by calculating the percentage of cell viability normalized in front of negative control values, which were considered as a 100%. The curve was adjusted using a sigmoidal dose-response (variable slope) equation and EC50 values were obtained from the equation
(§8) where, X is the logarithm of concentration. Y is the response. Bottom is the Y value at the bottom plateau Top is the Y value at the top plateau LogEC50 is the X value when the response is halfway between Bottom and Top. With different kinds of variables, this variable is sometimes called ED50 (effective dose, 50%), or IC50 (inhibitory concentration, 50%, used when the curve goes downhill).

Daoy = experiment: Cancer cell growth inhibition, Daoy; assay type: cell-based; conditions: Homo sapiens, Brain, cell viability, 72 h
Experimental: as §1, §2, §3, §4, §5, §6, §7, §8

Colo205 = experiment: Cancer cell growth inhibition, Colo205; assay type: cell-based; conditions: Homo sapiens, COLO 205; Colorectal, Colo205, cell viability, 72 h
Experimental: as §1, §2, §3, §4, §5
as §6, with “PBS. […]” for “PBS.”

RPMI-8226 = experiment: Cancer cell growth inhibition, RPMI-8226; assay type: cell-based; conditions: Homo sapiens; Multiple Myelome, RPMI-8226, cell viability, 72 h
Experimental: as §1, §2, §3, §4, §5, §6, §7, §8

NCI-H1650 = experiment: Cancer cell growth inhibition, NCI-H1650; assay type: cell-based; conditions: Homo sapiens; Lung, NCI-H1650, cell viability, 72 h
Experimental: as §1, §2, §3, §4, §5
as §6, with “PBS. […]” for “PBS.”

Panc-1 = experiment: Cancer cell growth inhibition, Panc-1; assay type: cell-based; conditions: Homo sapiens; Pancreatic, Panc-1, cell viability, 72 h
Experimental: as §1, §2, §3, §4, §5, §6, §7, §8

LS174T = experiment: Cancer cell growth inhibition, LS174T; assay type: cell-based; conditions: Homo sapiens, Colorectal, cell viability, 72 h
Experimental: as §1, §2
(§9) Cells were thawed in their appropriate media plus supplements (see table below). Cells were passaged at confluence by washing once in HBSS cation-free followed by a 3 minutes incubation with trypsin ([0.5 μg/ml]/EDTA [0.2 μg/ml]) (Gibco-BRL, 15400054) solution in HBSS at 37° C. (except non-adherent cell lines), and transferred to their appropriate media plus supplements. Prior to seeding at defined cell concentration, cells were recovered in medium, centrifuged and taken up in medium, and counted. […]
(§10) Dose-response curves were generated by serial dilutions (1:1) of the compounds. […] Plates were incubated 72 h, and living cell number was determined by AlamarBlue® and Hexosaminidase test. […] AlamarBlue® assay: plates were incubated 72 h and living cell number was determined by AlamarBlue (Biosource DAL1100). After 4 h incubation at 37° C., relative fluorescent intensity, which correlates with the number of living cells, was read in a Cytofluor plate reader (Millipore) at 535/590 nm (Excitation/emission). The hexosaminidase activity was measured according to the following protocol: the media was removed and cells were washed once with PBS. […]

K562 = experiment: Cancer cell growth inhibition, K562; assay type: cell-based; conditions: Homo sapiens; Hematologic, K562, cell viability, 72 h
Experimental: as §1, §2, §3, §4, §5
as §6, with “PBS. […]” for “PBS.”

MiaPaCa-2 = experiment: Cancer cell growth inhibition, MiaPaCa-2; assay type: cell-based; conditions: Homo sapiens, MIA PaCa-2; Pancreatic, MiaPaCa-2, cell viability, 72 h
Experimental: as §1, §2, §3, §4, §5, §6, §7, §8

DU-145 = experiment: Cancer cell growth inhibition, DU-145; assay type: cell-based; conditions: Homo sapiens; Prostate, DU-145, cell viability, 72 h
Experimental: as §1, §2, §3, §4, §5
as §6, with “PBS. […]” for “PBS.”

RAMOS = experiment: Cancer cell growth inhibition, RAMOS; assay type: cell-based; conditions: Homo sapiens, Hematologic, cell viability, 72 h
Experimental: as §1, §2, §3, §4, §5, §6, §7, §8

LoVo = experiment: Cancer cell growth inhibition, LoVo; assay type: cell-based; conditions: Homo sapiens, Colorectal, cell viability, 72 h
Experimental: as §1, §2, §3, §4, §5
as §6, with “PBS. […]” for “PBS.”

CCFR-CEM = experiment: Cancer cell growth inhibition, CCFR-CEM; assay type: cell-based; conditions: Hematologic, cell viability, 72 h
Experimental: as §1, §2, §3, §4, §5, §6, §7, §8

NCI-H358 = experiment: Cancer cell growth inhibition, NCI-H358; assay type: cell-based; conditions: Homo sapiens; Lung, NCI-H358, cell viability, 72 h
Experimental: as §1, §2, §3, §4, §5, §6, §7, §8

PC3 = experiment: Cancer cell growth inhibition, PC3; assay type: cell-based; conditions: Homo sapiens, PC-3; Prostate, PC3, cell viability, 72 h
Experimental: as §1, §2, §3, §4, §5, §6, §7, §8

HCT-116 = experiment: Cancer cell growth inhibition, HCT-116; assay type: cell-based; conditions: Homo sapiens; Colorectal, HCT-116, cell viability, 72 h
Experimental: as §1, §2, §3, §4, §5, §6, §7, §8

MDA-MB-435 = experiment: Cancer cell growth inhibition, MDA-MB-435; assay type: cell-based; conditions: Homo sapiens; Melanoma, MDA-MB-435, cell viability, 72 h
Experimental: as §1, §2, §3, §4, §5, §6, §7, §8

HT-1080 = experiment: Cancer cell growth inhibition, HT-1080; assay type: cell-based; conditions: Homo sapiens; HT-1080, cell viability, 72 h
Experimental: as §1, §2, §3, §4, §5, §6, §7, §8

SK-OV-3 = experiment: Cancer cell growth inhibition, SK-OV-3; assay type: cell-based; conditions: Homo sapiens; Ovarian, SK-OV-3, cell viability, 72 h
Experimental: as §1, §2, §3, §4, §5
as §6, with “PBS. […]” for “PBS.”

SW-480 = experiment: Cancer cell growth inhibition, SW-480; assay type: cell-based; conditions: Homo sapiens, SW480; Colorectal, SW-480, cell viability, 72 h
Experimental: as §1, §2, §9, §10

Human DNMT1 = target: T1, Human DNMT1 (Homo sapiens, UniProt P26358); experiment: DNMT1 enzymatic activity inhibition, radioisotope-based 3H-SAM filter binding assay; assay type: biochemical; conditions: 1 μM SAM, 25 nM DNMT1, 0.005 mg/ml Poly(dI-dC), 30° C. 1 hour, 10-dose
T1 construct: a-a 2-1632, with N-terminal GST tag; GST (N)
Experimental: The inhibition of the enzymatic activity of DNMT1 was tested using low volume radioisotope-based assay which uses tritium-labeled AdoMet (^3H-SAM) as a methyl donor. Inhibitors diluted in DMSO were added by using acoustic technology (Echo550, Labcyte Inc. Sunnyvale, Calif.) into enzyme/substrate mixture in nano-liter range. The reaction was initiated by the addition of ^3H-SAM, and incubated at 30° C. for 1 hour. Total final methylations on the substrate poly(dI-dC) were detected by a filter binding approach. Data analysis was performed using GraphPad Prism software (La Jolla, Calif.) for IC50 curve fits.

NCI-H1975 = experiment: Cancer cell growth inhibition, NCI-H1975; assay type: cell-based; conditions: Homo sapiens; Lung, NCI-H1975, cell viability, 72 h
Experimental: as §1, §2, §3, §4, §5, §6, §7, §8

SK-MEL-28 = experiment: Cancer cell growth inhibition, SK-MEL-28; assay type: cell-based; conditions: Homo sapiens; Melanoma, SK-MEL-28, cell viability, 72 h
Experimental: as §1, §2, §3, §4, §5
as §6, with “PBS. […]” for “PBS.”

A-549 = experiment: Cancer cell growth inhibition, A-549; assay type: cell-based; conditions: Homo sapiens, A549; Lung, A-549, cell viability, 72 h
Experimental: as §1, §2, §3, §4, §5, §6, §7, §8

LnCaP = experiment: Cancer cell growth inhibition, LnCaP; assay type: cell-based; conditions: Homo sapiens, Prostate, cell viability, 72 h
Experimental: as §1, §2, §3, §4, §5, §6, §7, §8

U-373MG = experiment: Cancer cell growth inhibition, U-373MG; assay type: cell-based; conditions: Homo sapiens, U373 MG, Brain, cell viability, 72 h
Experimental: as §1, §2, §3, §4, §5
as §6, with “PBS. […]” for “PBS.”

MCF-7 = experiment: Cancer cell growth inhibition, MCF-7; assay type: cell-based; conditions: Homo sapiens, MCF7; Breast, MCF-7, cell viability, 72 h
Experimental: as §1, §2, §3, §4, §5, §6, §7, §8

Jurkat = experiment: Cancer cell growth inhibition, Jurkat; assay type: cell-based; conditions: Homo sapiens, Hematologic, cell viability, 72 h
Experimental: as §1, §2, §3, §4, §5, §6, §7, §8

143B = experiment: Cancer cell growth inhibition, 143B; assay type: cell-based; conditions: Homo sapiens, Osteosarcoma, cell viability, 72 h
Experimental: as §1, §2, §3, §4, §5, §6, §7, §8

T47D = experiment: Cancer cell growth inhibition, T47D; assay type: cell-based; conditions: Homo sapiens, Breast, cell viability, 72 h
Experimental: as §1, §2, §3, §4, §5, §6, §7, §8

T1 sequence (P26358 2-1632 isoform P26358-2): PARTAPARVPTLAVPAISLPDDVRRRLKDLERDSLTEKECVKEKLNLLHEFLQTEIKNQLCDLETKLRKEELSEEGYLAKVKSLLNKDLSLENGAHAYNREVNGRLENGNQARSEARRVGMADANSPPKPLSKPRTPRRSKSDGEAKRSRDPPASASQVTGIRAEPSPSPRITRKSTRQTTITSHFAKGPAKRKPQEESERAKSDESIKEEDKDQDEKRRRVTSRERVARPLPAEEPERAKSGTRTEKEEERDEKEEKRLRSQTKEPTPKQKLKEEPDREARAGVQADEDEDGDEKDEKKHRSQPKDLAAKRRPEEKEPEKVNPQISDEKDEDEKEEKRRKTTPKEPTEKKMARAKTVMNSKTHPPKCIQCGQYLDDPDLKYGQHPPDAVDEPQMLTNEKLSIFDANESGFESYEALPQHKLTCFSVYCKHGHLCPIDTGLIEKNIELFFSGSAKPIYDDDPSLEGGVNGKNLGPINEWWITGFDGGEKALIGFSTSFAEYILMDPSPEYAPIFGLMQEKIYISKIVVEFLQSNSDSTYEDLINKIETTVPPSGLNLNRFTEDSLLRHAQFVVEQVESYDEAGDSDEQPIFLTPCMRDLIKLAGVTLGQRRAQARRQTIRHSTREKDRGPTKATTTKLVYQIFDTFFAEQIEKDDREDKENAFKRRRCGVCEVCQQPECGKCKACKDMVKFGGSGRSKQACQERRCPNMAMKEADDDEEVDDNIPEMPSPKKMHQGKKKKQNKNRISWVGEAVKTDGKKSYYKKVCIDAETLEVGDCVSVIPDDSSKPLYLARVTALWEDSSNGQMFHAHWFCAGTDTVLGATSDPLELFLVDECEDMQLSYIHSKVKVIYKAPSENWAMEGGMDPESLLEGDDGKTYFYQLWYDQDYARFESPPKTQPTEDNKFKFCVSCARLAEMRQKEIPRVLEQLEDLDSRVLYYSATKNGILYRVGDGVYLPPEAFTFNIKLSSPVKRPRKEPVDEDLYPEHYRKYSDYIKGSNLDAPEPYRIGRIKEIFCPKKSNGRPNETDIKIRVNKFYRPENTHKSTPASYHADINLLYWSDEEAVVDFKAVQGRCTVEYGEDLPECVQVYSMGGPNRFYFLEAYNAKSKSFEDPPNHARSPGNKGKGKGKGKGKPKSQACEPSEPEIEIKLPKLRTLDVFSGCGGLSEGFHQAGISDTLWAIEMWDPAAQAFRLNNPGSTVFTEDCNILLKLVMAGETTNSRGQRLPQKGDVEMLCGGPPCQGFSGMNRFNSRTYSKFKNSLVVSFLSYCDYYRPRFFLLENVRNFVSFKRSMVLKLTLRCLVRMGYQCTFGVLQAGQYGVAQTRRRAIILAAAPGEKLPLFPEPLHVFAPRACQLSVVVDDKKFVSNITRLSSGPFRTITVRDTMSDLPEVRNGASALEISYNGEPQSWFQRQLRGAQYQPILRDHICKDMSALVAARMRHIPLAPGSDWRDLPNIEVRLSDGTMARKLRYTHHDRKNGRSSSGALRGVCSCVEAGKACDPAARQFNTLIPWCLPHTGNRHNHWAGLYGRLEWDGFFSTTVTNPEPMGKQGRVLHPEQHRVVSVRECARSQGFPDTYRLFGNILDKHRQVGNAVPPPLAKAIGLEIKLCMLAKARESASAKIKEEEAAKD

## COc1cc(OC)c2c(-c3ccc(O)c(O)c3O)cn(CC(=O)c3ccc(O)c(O)c3O)c2c1 [Example 11, 2-[4,6-dimethoxy-3-(2,3,4-trihydroxyphenyl)-1H-indol-1-yl]-1-(2,3,4-trihydroxyphenyl)ethanone]
U-87MG
  EC50: 50 µM
Daoy
  EC50: 6.6 µM
Colo205
  EC50: 24 µM
RPMI-8226
  EC50: 60 µM
NCI-H1650
  EC50: 57 µM
Panc-1
  EC50: 23 µM
LS174T
  EC50: 62 µM
K562
  EC50: 69 µM
MiaPaCa-2
  EC50: 65 µM
DU-145
  EC50: 47 µM
RAMOS
  EC50: 12 µM
LoVo
  EC50: 50 µM
CCFR-CEM
  EC50: 7.6 µM
NCI-H358
  EC50: 51 µM
PC3
  EC50: 26 µM
HCT-116
  EC50: 22 µM
MDA-MB-435
  EC50: 11 µM
HT-1080
  EC50: 20 µM
SK-OV-3
  EC50: 73 µM
SW-480
  EC50: 24 µM
Human DNMT1
  IC50: 39.4 µM
NCI-H1975
  EC50: 30 µM
SK-MEL-28
  EC50: 33 µM
A-549
  EC50: 35 µM
LnCaP
  EC50: 30 µM
U-373MG
  EC50: 58 µM
MCF-7
  EC50: 12 µM
Jurkat
  EC50: 8.9 µM
143B
  EC50: 99 µM
T47D
  EC50: 30 µM
